pIC50: −log10 of the molar value.
What was measured:
[1] = test system: PC12 cells; assay: Cell viability / proliferation of PC12 cells (Myc independent); format: cell-based
Method: (§1) Proliferation Assay (FIG. 11). PC3 prostate cancer cell line with high Myc level and PC12 pheochromocytoma tumor cell line with non functional Max protein, which is not dependent on Myc-Max complex, were phased from ATCC. Cells were plated in 96 well plate at 1000 cells per well, and Myc inhibitor 361 at various concentrations was added to the cells next day. After 3 days of treatment, fresh medium with 361 were added again, and cell viability was measured by MTS assay at day 5 after the treatment. (See FIG. 11).

[2] = test system: MycCap cells; assay: Cell viability of MycCap cells; format: cell-based
[3] = test system: MV411 cells; assay: AML xenograft model (MV411), combination with Ara-C; format: in vivo, mouse; conditions: AML mice xenograft model
Method: Myc inhibitor combination treatment with Ara-C in AML xenograft model (FIG. 17). CB17 SCID mice were inoculated with MV411 cells at the density of 5×10^6 suspended in PBS and matrigel (1:1). The mice were randomized based on tumor volume into 6 different groups after the tumor reached ˜200 to 500 mm^3. The mice were treated either with vehicle, NUO31, NU975 alone or in combination with cytarabine (Ara-C). […] (See FIG. 17).

[4] = biological target: MYC/Max binding to DNA (Homo sapiens, UniProt P01106); assay: Electrophoretic mobility shift assay (EMSA), MYC/Max binding to DNA
Method: We also tested our best hit compound Min9 (NUCC-0176234) and newly synthesized analogs for effects of these compounds on MYC/Max binding to DNA in electrophoretic mobility shift assays (EMSAs). (See FIG. 5a and FIG. 5b). We expected the active compounds to impair MYC/Max binding to DNA. Several strucutural analogs of Min9 were tested over multiple doses for inhibiting MYC-DNA binding and we observed a dose-dependent inhibition. (See FIG. 5c).

[5] = test system: DNA damage; assay: rH2AX staining assay for DNA damage; format: cell-based
Method: Min9 (NUCC-0176234) was also tested for its ability to cause DNA damage in an rH2AX staining assay. We would not expect cMYC-targeting agents to produce significant DNA damage. Compounds that act directly against DNA such as doxorubicin do however. […] (See FIG. 6).

[6] = test system: cMYC wild-type (WT) and cMYC KO line; assay: Cell viability, cMYC wild-type (WT) versus cMYC KO line; format: cell-based; conditions: cMYC WT vs cMYC KO line
Method: Min9 (NUCC-0176234) was also tested in a cell viability assay against a cMYC wild-type (WT) and a cMYC KO line.

[7] = In vitro metabolism, mouse S9 fraction; format: in vitro ADME
Method: (§2) In vitro metabolism of NUCC-176242 and NUCC-176248 were tested using mouse liver microsomes and a mouse S9 fraction. (See FIG. 9).

[8] = In vitro metabolism, mouse liver microsomes; format: in vitro ADME; conditions: % remaining of compound after 60 min treatment with mouse liver microsomes
Method: as §2

[9] = test system: wild type and MYC knockout rat fibroblasts; assay: Growth inhibition of MYC wild type versus MYC knockout rat fibroblasts; format: cell-based
Source text: We tested the top 13 active compounds in the first screen assay. […] More than half of the tested compounds show better growth inhibitory effect on MYC WT compared to MYC KO cells.

[10] = test system: MYC transcriptional activity; assay: MYC E-Box luciferase reporter assay; format: cell-based; conditions: MycCap Ebox-luc, 4 hours of treatment
Method: To test the compounds, we evaluated the in silico hits in a MYC E-Box luciferase reporter assay to measure the effects of these compounds (referred to as Min-1 to Min-32) on MYC transcriptional activity. […] (See FIG. 2).
Myc Ebox luciferase reporter assay (FIG. 12). MycCap cells stably expressing luciferase with CMV promoter (MycCap-luc) or c-Myc E-box-luciferase reporter (MycCap Ebox-luc) were plated at 10000 cells per well in 96 well white-wall plate. Serial dilutions of 361 were treated next day. At 4 hours of treatment, luminescence signal was determined immediately after adding 150 μg/ml of Luciferin to the well. (See FIG. 12).

[11] = test system: MycCap tumor; assay: MycCap FVB allograft model, combination with anti-PD-1 immunotherapy; format: in vivo, mouse; conditions: combination with Immunotherapy (anti-PD-1 antibody)
Method: Myc inhibitor 361 combination with Immunotherapy (FIG. 16). MycCap FVB allograft model was treated with 361 (50 mg/kg) for two days, following by two days of anti-PD-1 antibody (100 ug/day), and kept this 4-day treatment cycle for 4 cycles. (See FIG. 16).

[12] = test system: MycCap tumor; assay: MycCap FVB allograft model; format: in vivo; conditions: mouse prostate cancer allograft model, intra-peritoneally
Method: MycCap FVB allograft model (FIG. 15). FVB mice were inoculated with 1×10^6 of MycCap cells in 100 ul of matrigel subcutaneously on both flanks of the mice. When tumor size reached average size of 150 mm^3, mice were randomized based on tumor volume to 2 groups. Mice were administered with 50 mg/kg of 361 or vehicle (Veh) twice daily intra-peritoneally for two days. The treatment was suspended for 10 day, and initiated the treatment with a lower dose […] daily for another 9 days. Tumor size was measured twice a week during the experiment. (See FIG. 15).

[13] = test system: PC3 prostate cancer cell line; assay: Proliferation assay (MTS), PC3 prostate cancer cell line; format: cell-based; conditions: day 5
Method: as §1

Sequence of MYC/Max binding to DNA (P01106 whole entry): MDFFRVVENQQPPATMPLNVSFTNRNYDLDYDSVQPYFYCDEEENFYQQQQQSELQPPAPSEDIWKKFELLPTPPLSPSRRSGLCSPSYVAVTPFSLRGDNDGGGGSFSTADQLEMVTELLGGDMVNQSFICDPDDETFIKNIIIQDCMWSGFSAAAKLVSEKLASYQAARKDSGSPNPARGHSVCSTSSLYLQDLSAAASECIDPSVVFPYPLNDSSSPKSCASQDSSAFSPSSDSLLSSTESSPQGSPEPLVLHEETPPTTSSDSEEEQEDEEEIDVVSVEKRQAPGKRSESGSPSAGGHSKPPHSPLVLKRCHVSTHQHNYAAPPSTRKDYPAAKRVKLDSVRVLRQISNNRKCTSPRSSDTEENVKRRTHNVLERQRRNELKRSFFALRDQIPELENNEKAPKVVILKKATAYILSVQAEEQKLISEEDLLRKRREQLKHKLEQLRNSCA

With `CNC(=O)c1cc(-c2ccc(OCc3ccc(Cl)cc3)c(-c3cc(C(F)(F)F)cc(C(F)(F)F)c3)c2O)nn1C` [NUCC-0201224] the pIC50 [1] was 4.94 and the pIC50 [2] was 5.96.

For `CCCCOc1ccc(-c2cc(C(F)(F)F)n[nH]2)c(O)c1-c1cc(C(F)(F)F)cc(C(F)(F)F)c1` [compound 031], the “anti-tumor effect with Ara-C” value [3] was “significant synergic anti-tumor effect”.

For `CCc1ccc(Oc2c[nH]nc2-c2ccc(OCc3cnn(-c4ccccc4)c3)cc2O)cc1` [NUCC-0176234], the “inhibition of MYC/Max binding to DNA (in words)” value [4] was “prevent c-MYC/DNA binding”, the DNA damage [5] was “essentially no DNA damage” and the “cell viability, WT line versus KO cells” value [6] was “reduces cell viability much more in the WT line than the KO cells”.

For `CCc1ccc(Oc2c(-c3ccc(OCc4ccc(Cl)cc4)cc3O)n[nH]c2C(F)(F)F)cc1` [NUCC-0176242], the “metabolism by mouse S9 fraction” value [7] was “significantly metabolism by the mouse S9 fraction versus NUCC-176248”.

With `Cn1nc(C(F)(F)F)cc1-c1ccc(OCc2ccc(Cl)cc2)c(-c2cc(C(F)(F)F)cc(C(F)(F)F)c2)c1O` [NUCC-0196361] the “MLM % at 60 min” value [8] was 72.9%.

For `COc1cccc(-c2c(-c3ccc(OCc4ccc(Cl)cc4)cc3O)n[nH]c2C(F)(F)F)c1` [NUCC-0198309], the “MLM % at 60 min” value [8] was 74%.

For `CCOC(=O)c1cc(-c2ccc(OCc3ccc(Cl)cc3)c(-c3cc(C(F)(F)F)cc(C(F)(F)F)c3)c2O)n[nH]1` [NUCC-0200972], the “MLM % at 60 min” value [8] was 60.3%.

In the case of `Oc1c(-c2cc(C(F)(F)F)[nH]n2)ccc(Oc2ccc(Cl)cc2)c1-c1cc(C(F)(F)F)cc(C(F)(F)F)c1` [NUCC-0201223], the “MLM % at 60 min” value [8] was 75.8%.

In the case of `CCc1ccc(Oc2c(-c3ccc(OCc4ccncc4)cc3O)n[nH]c2C(F)(F)F)cc1` [NUCC-0176250], the “selectivity of growth inhibition, MYC WT compared to MYC KO cells” value [9] was “great selectivity”.

With `Cn1nc(C(F)(F)F)cc1-c1ccc(OCc2ccc(Cl)cc2)c(-c2ccc(Cl)c(C(F)(F)F)c2)c1O` [compound 975] the “anti-tumor effect with Ara-C” value [3] was “significant synergic anti-tumor effect”.

With `CCc1ccc(Oc2c(-c3ccc(OCc4ccc(Cl)cc4)cc3O)nn(C)c2C(F)(F)F)cc1` [NUCC-0176248] the “selectivity of growth inhibition, MYC WT compared to MYC KO cells” value [9] was “high specificity”.

With `CCc1c(OCc2ccc(Cl)cc2)ccc(-c2cc(C(F)(F)F)n[nH]2)c1O` [NUCC-0200739] the “MLM % at 60 min” value [8] was 46.4%.

In the case of `CCCCCCOc1ccc(-c2cc(C(F)(F)F)nn2C)c(O)c1-c1cncc(C#N)c1` [NUCC-0201207], the “MLM % at 60 min” value [8] was 52.7%.

In the case of `Cn1nc(C(F)(F)F)cc1-c1ccc(OCc2ccc(Cl)cc2)c(-c2cc(C(F)(F)F)cc(C(F)(F)F)c2)c1O` [compound 361], the c-Myc transcription activity [10] was “inhibits c-Myc transcription activity as an early event before affecting cell viability”, the tumor progression [11] was “significantly blocks tumor progression” and the tumor volume [12] was “reduces tumor volume”. The “proliferation of Myc dependent cell line PC3” value [13] was “specifically inhibits proliferation”.

— patent US20250084040A1, “SUBSTITUTED HETEROCYCLES AS c-MYC TARGETING AGENTS” (Northwestern University, priority 2018, published 2025)
